For three molecules, IC50 and PR antagonism results are on record in patent US20260102501A1, “ANTI-CANCER NUCLEAR HORMONE RECEPTOR-TARGETING COMPOUNDS” (Nuvation Bio Inc., priority 2022, published 2026).

The target in assay [1] is T1, AR (cytosol from LnCaP cells) (Homo sapiens, UniProt P10275, T878A).
T1 sequence (P10275 1-920 T878A): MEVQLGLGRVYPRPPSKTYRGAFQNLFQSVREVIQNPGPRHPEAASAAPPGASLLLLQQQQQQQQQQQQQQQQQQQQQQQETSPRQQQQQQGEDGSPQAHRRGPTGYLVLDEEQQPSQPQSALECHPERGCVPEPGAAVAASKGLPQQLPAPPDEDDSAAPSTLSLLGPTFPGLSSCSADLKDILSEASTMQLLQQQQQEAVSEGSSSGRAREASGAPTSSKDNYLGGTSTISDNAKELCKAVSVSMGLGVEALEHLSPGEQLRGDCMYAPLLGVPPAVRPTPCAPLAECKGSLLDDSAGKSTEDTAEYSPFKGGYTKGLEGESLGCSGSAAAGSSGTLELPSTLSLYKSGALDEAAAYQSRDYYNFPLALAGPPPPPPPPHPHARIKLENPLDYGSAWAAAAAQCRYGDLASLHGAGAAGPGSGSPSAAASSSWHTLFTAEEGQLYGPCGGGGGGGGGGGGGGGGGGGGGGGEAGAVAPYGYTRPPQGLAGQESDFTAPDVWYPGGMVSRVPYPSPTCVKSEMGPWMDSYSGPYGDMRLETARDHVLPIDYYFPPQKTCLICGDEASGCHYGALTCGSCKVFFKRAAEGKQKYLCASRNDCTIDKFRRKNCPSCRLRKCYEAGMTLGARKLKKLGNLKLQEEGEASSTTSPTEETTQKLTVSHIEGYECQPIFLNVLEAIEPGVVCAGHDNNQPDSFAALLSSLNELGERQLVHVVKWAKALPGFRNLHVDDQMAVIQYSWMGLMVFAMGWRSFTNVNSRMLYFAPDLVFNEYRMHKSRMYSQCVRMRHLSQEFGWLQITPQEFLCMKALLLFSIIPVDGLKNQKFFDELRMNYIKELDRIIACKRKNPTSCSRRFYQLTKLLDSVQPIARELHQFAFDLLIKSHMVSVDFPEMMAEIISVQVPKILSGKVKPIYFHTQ
Nature of the assay: AR binding assay (3H-R1881 displacement).
Protocol: The plate was then centrifuged at 3000 rpm for 30 minutes at 4° C.

In the next assay the test system is IEC6 cells. As to the kind of experiment: Cell viability assay (CellTiterGlo). To be noted: Rattus norvegicus, IEC-6, 144 h, read-out: IEC-6 (IC50, nM). On the technique in general: ATP-based viability assays read luminescence as a measure of living cells.
Another assay has as its system LNCap cells. As to the kind of experiment: Cell viability assay (CellTiterGlo). It counts as cell-based. The note with it: Homo sapiens, 144 h, read-out: LNCap (IC50, nM).
The target in assay [2] is T2, Progesterone Receptor (PR)-LBD and coactivator peptide (Homo sapiens, UniProt P06401).
T2 sequence (P06401 679-913 limits assumed): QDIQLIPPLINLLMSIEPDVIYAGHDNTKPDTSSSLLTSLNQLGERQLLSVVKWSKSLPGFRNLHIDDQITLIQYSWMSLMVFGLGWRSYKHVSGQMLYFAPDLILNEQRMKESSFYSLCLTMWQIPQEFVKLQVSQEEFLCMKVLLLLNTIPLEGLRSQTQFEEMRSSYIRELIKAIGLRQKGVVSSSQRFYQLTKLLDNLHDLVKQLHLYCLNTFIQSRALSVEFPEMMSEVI
As to the kind of experiment: PR coactivator antagonist assay. To be noted: 2.5 nM PR-LBD, 10 nM progesterone-induced fluorescence response.

Assay [3] concerns the target T3, GR (cytosol from IM-9 cells) (Homo sapiens, UniProt P04150).
T3 sequence (P04150 1-777): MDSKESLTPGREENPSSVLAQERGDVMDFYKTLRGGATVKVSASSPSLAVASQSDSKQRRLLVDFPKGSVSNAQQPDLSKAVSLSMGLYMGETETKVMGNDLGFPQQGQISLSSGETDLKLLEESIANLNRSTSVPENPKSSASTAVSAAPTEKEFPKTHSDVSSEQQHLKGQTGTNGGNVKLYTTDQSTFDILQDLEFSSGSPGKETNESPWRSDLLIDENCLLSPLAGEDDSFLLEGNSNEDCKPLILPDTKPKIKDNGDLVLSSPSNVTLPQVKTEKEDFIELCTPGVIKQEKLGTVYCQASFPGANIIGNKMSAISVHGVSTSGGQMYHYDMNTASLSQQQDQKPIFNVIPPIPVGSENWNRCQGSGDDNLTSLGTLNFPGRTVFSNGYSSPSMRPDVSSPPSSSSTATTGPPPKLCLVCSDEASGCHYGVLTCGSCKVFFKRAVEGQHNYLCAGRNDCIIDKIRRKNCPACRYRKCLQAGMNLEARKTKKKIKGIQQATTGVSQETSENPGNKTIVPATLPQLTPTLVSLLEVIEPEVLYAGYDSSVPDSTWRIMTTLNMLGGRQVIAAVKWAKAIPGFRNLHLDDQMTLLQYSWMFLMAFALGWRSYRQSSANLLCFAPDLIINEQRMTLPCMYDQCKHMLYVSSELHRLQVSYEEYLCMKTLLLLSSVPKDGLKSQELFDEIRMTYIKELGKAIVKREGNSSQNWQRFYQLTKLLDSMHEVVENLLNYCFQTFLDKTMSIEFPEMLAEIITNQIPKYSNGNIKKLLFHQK
As to the kind of experiment: GR binding assay (3H-Dexamethasone displacement).

The next assay concerns T47D cells. Nature of the assay: Cell viability assay (CellTiterGlo). It counts as cell-based. The note with it: Homo sapiens, 144 h, read-out: T47D (IC50, nM).
In assay [4] the target is T4, Progesterone PR-B receptors from human breast carcinoma T47D cells (Homo sapiens, UniProt P06401).
T4 sequence (P06401 1-933): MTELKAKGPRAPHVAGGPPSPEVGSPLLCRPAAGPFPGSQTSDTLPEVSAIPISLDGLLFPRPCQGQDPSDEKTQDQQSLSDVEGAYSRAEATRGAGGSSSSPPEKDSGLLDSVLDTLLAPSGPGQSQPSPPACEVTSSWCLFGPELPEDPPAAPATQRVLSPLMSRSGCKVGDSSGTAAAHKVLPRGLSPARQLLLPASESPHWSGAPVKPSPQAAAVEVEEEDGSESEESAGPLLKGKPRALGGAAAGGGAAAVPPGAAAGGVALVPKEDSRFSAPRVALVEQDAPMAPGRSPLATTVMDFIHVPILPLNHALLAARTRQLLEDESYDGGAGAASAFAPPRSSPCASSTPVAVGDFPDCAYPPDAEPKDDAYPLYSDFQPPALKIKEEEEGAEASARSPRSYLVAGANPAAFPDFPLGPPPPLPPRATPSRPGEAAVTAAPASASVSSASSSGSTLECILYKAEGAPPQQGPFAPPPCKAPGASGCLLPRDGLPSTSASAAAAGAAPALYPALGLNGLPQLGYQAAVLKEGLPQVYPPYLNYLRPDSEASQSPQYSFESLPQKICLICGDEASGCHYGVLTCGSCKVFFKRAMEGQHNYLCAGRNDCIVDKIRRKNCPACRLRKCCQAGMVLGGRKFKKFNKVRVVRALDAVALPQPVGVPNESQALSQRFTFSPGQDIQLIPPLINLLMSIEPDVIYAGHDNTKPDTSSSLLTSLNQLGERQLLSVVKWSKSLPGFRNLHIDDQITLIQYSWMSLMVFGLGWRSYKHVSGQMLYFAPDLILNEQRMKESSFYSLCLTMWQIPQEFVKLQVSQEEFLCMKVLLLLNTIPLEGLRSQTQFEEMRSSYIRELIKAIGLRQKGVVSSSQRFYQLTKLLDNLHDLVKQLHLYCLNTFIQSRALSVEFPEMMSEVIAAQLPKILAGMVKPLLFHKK
Nature of the assay: PR binding assay ([3H] Progesterone displacement).

For assay [5], the target named is T5, ligand binding domain of the glucocorticoid receptor (HEK293 cells stably expressing) (Homo sapiens, UniProt P04150).
T5 sequence (P04150 524-758 limits assumed): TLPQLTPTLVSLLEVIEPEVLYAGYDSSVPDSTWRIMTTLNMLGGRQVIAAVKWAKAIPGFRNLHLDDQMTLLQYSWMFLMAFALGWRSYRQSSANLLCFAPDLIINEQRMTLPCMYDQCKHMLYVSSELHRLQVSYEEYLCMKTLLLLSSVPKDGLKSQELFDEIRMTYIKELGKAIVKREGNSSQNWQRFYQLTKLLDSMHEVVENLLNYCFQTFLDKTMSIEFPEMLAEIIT
Nature of the assay: GR antagonism assay (luciferase reporter). Background: Reporter assays use an easily measured gene product as a stand-in for the process of interest.
Protocol: HEK293 cells stably expressing the ligand binding domain of the glucocorticoid receptor were seeded at a density of 40000 cells/well in the assay plate. The assay plate was then incubated at 37° C., 5% CO2 for 30 minutes. Dexamethasone was added to the assay plate at 1.5 nM final concentration and the assay plate incubated at 37° C., 5% CO2 for 20 h. After the incubation period, Dual-glo luciferase reagent was added to the assay plate and mixed at room temperature for 20 minutes on an orbital shaker, before reading out on the En Vision plate reader. 50 μL of Stop & Glo reagent was added to assay plate, mixed at room temperature for 20 minutes, and read on the Envision plate reader.

With `CC[C@@]1(O)C(=O)OCc2c1cc1n(c2=O)Cc2cc3c(CN(C)C)c(OC(=O)N4CCN(CCCCCN(C)c5ccc([C@H]6C[C@@]7(C)[C@@H](CC[C@]7(OC(C)=O)C(C)=O)[C@@H]7CCC8=CC(=O)CCC8=C76)cc5)CC4)ccc3nc2-1` [Compound 8, (S)-10-((Dimethylamino)methyl)-4-ethyl-4-hydroxy-3,14-dioxo-3,4,12,14-tetrahydro-1H-pyrano[3′,4′:6,7]indolizino[1,2-b]quinolin-9-yl 4-(5-((4-((8S,11R,13S,14S,17R)-17-acetoxy-17-acetyl-13-methyl-3-oxo-2,3,6,7,8,11,12,13,14,15,16,17-dodecahydro-1H-cyclopenta[a]phenanthren-11-yl)phenyl)(methyl)amino)pentyl)piperazine-1-carboxylate], the IC50 (as a rule, the midpoint of a concentration-inhibition curve) in assay [1] is less than 0.01 µM; in the assay with IEC6 cells, 101 to 1000 nM; in the assay with LNCap cells, 101 to 1000 nM; in assay [3], 0.01 to 0.1 µM; in the assay with T47D cells it was 10 to 100 nM; in assay [4], less than 0.01 µM. The same molecule registered a concentration for half-maximal inhibition (IC50) in assay [5] of 0.01 to 0.1 µM. In addition, in assay [2], the PR antagonism entry is listed as “a (IC50 =< 10 nM)”.

For the molecule `CCCCCCC(=O)O[C@]1(CC)C(=O)OCc2c1cc1n(c2=O)Cc2cc3c(CN(C)C)c(OC(=O)N4CCN(CCCCCCN(C)c5ccc([C@H]6C[C@@]7(C)[C@@H](CC[C@]7(OC(C)=O)C(C)=O)[C@@H]7CCC8=CC(=O)CCC8=C76)cc5)CC4)ccc3nc2-1` [Compound No. 12, (S)-10-((Dimethylamino)methyl)-4-ethyl-4-(heptanoyloxy)-3,14-dioxo-3,4,12,14-tetrahydro-1H-pyrano[3′,4′:6,7]indolizino[1,2-b]quinolin-9-yl 4-(6-((4-((8S,11R,13S,14S,17R)-17-acetoxy-17-acetyl-13-methyl-3-oxo-2,3,6,7,8,11,12,13,14,15,16,17-dodecahydro-1H-cyclopenta[a]phenanthren-11-yl)phenyl)(methyl)amino)hexyl)piperazine-1-carboxylate], the half-inhibitory concentration (IC50) in assay [1] is 0.101 to 1 µM; in the assay with IEC6 cells, more than 1000 nM; with LNCap cells, more than 1000 nM; in assay [3], less than 0.01 µM; in the assay on T47D cells, more than 1000 nM; in assay [4] it was less than 0.01 µM. For the same molecule, the IC50 in assay [5] fell in the range of 0.01 to 0.1 µM. Also, the PR antagonism entry in assay [2] was “a (IC50 =< 10 nM)”.

For the molecule `CC[C@@]1(OC(=O)CN(C)C)C(=O)OCc2c1cc1n(c2=O)Cc2cc3c(CN(C)C)c(OC(=O)N4CCN(CCCCCCN(C)c5ccc([C@H]6C[C@@]7(C)[C@@H](CC[C@]7(OC(C)=O)C(C)=O)[C@@H]7CCC8=CC(=O)CCC8=C76)cc5)CC4)ccc3nc2-1` [Compound No. 14, (S)-10-((Dimethylamino)methyl)-4-((dimethylglycyl)oxy)-4-ethyl-3,14-dioxo-3,4,12,14-tetrahydro-1H-pyrano[3′,4′:6,7]indolizino[1,2-b]quinolin-9-yl 4-(6-((4-((8S,11R,13S,14S,17R)-17-acetoxy-17-acetyl-13-methyl-3-oxo-2,3,6,7,8,11,12,13,14,15,16,17-dodecahydro-1H-cyclopenta[a]phenanthren-11-yl)phenyl)(methyl)amino)hexyl)piperazine-1-carboxylate], the half-inhibitory concentration (IC50) in assay [1] was 0.01 to 0.1 µM; in the assay on IEC6 cells it was 10 to 100 nM; in the assay with LNCap cells, 101 to 1000 nM; in assay [3], less than 0.01 µM; in the assay with T47D cells it was 10 to 100 nM; in assay [4], less than 0.01 µM. This molecule also returned an IC50 in assay [5] of 0.01 to 0.1 µM. Moreover, the PR antagonism entry in assay [2] is reported as “a (IC50 =< 10 nM)”.
